Legend:
[1] = target: T1, strychnine insensitive glycine binding site located on the NMDA receptor complex (Rattus norvegicus, UniProt P35439); test: Affinity for strychnine insensitive glycine binding site (procedure of Kishimoto et al.)
T1 construct: from tissue
Description: The potent and selective action of the compound of the invention at the strychnine-insensitive glycine binding site present on the NMDA receptor complex may be readily determined using conventional test procedures. Thus the ability to bind at the strychnine insensitive glycine binding site was determined using the procedure of Kishimoto H et al. J Neurochem 1981, 37 1015-1024. The selectivity of the action of compounds of the invention for the strychnine insensitive glycine site was confirmed in studies at other ionotropic known excitatory amino acid receptors.
The affinity of a compound of the invention for strychnine insensitive glycine binding site located on the NMDA receptor complex was determined using the procedure of Kishimoto H. et al J. Neurochem 1981, 37, 1015-1024.

[2] = test system: generalized seizures induced by an intracerebroventicular injection of NMDA; test: Inhibition of NMDA induced convulsions in the mouse (procedure of Chiamulera et al.); assay type: in vivo; details: mice, iv, 0.1 mg/kg dose, NMDA icv induced generalized seizures
Description: The ability of compounds of the invention to inhibit NMDA induced convulsions in the mouse was determined using the procedure of Chiamulera C et al. Psychopharmacology 1990, 102, 551-552. In this test the ability of the compound when administered iv to inhibit the generalized seizures induced by an intracerebroventicular injection of NMDA in mice was examined at 0.1 mg/kgdose.
The results as percent (%) of inhibition at 0.1 mg/kg dose for representative compounds are given below: […]

Ki [1] [nM]	SMILES	% of inhibition [2] [%]
7.94	NC(=O)C=Cc1ccc(NC(=O)C=C2CC(C(=O)O)Nc3cc(Cl)cc(Cl)c32)cc1 (racemic) [Example 3, (+/−(E,E)-4-[4-(2-Carbamoyl-vinyl)-phenylcarbamoylmethylene]-5,7-dichloro-1,2,3,4-tetrahydro-quinoline-2-carboxylic Acid]	40
63.1	O=C(C=C1CC(C(=O)O)Nc2cc(Cl)cc(Cl)c21)Nc1ccc(OCCN2CCOCC2)cc1 (racemic) [Example 4, (+/−)(E)-5,7-Dichloro-4-[4-(2-morpholin-4-yl-ethoxy)-phenylcarbamoylmethylene]-1,2,3,4-tetrahydro-guinoline-2-carboxylic Acid]	
7.94	N#CCc1ccc(NC(=O)/C=C2\CC(C(=O)O)Nc3cc(Cl)cc(Cl)c32)cc1 (racemic) [Example 5, (+/−)(E)-5,7-Dichloro-4-(4-cyanomethyl-phenylcarbamoylmethylene)-1,2,3,4-tetrahydro-quinoline-2-carboxylic Acid]	
15.8	CC(C)C(=O)NCCOc1ccc(NC(=O)C=C2CC(C(=O)O)Nc3cc(Cl)cc(Cl)c32)cc1 (racemic) [Example 6, (+/−)(E)-5,7-Dichloro-4-[4-(2-isobutyrylamino-ethoxy)-phenylcarbamoylmethylene]-1,2,3,4-tetrahydro-guinoline-2-carboxylic Acid]	40
6.31	COCC(=O)Nc1ccc(NC(=O)C=C2CC(C(=O)O)Nc3cc(Cl)cc(Cl)c32)cc1 (racemic) [Example 7, (+/−)(E)-5,7-Dichloro-4-[4-(2-methoxy-acetylamino)-phenylcarbamoylmethylene-1,2,3,4-tetrahydro-quinoline-2-carboxylic Acid]	40
7.94	CC(C)C(=O)NCC(=O)Nc1ccc(NC(=O)/C=C2\CC(C(=O)[O-])Nc3cc(Cl)cc(Cl)c32)cc1.[Na+] (racemic) [Example 9, (+/−)(E)-5,7-Dichloro-4-(4-isobutyrylaminomethylcarbonylamino-phenylcarbamoylmethylene)-1,2,3,4-tetrahydro-quinoline-2-carboxylic Acid Sodium Salt]	40
